According to patent publication US20230279025A1, “KRAS G12D INHIBITORS” (Mirati Therapeutics, Inc., priority 2020, published 2023):
Where a name gives a salt, the structure may show the parent alone.

Each molecule was assayed against KRas G12D (Homo sapiens (Human), UniProt P01116, G12D) (assay: KRas G12D Binding Assay (TR-FRET displacement of Cy5 labelled tracer)). Settings: GDP-loaded KRAS G12D (amino acids 1:169), 60 minute incubation at 22° C.
Method: After a 60 minute incubation at 22° C., the reaction was measured using a PerkinElmer EnVision multimode plate reader via TR-FRET dual wavelength detection, and the percent of control (POC) calculated using a ratiometric emission factor. […] The POC values were fit to a 4-parameter logistic curve and the IC50 value was determined as the concentration where the curve crosses 50 POC.
ND stands for “not determined.”

Sequence of KRas G12D (P01116 other isoform, or with tags, fused parts or gaps G12D): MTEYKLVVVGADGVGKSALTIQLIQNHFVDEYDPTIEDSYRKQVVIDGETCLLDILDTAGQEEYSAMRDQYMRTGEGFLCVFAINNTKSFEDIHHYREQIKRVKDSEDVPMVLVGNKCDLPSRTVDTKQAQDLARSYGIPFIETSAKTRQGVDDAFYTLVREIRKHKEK

Going from `Oc1cc(-c2ncc3c(N4CC5CCC(C4)N5)nc(OCCN4C[C@@H]5C[C@H]4CO5)nc3c2F)c2ccccc2c1` [Example 461, 4-(2-(2-((1S,4S)-2-oxa-5-azabicyclo[2.2.1]heptan-5-yl)ethoxy)-4-((1R,5S)-3,8-diazabicyclo[3.2.1]octan-3-yl)-8-fluoropyrido[4,3-d]pyrimidin-7-yl)naphthalen-2-ol] to `O=C(NCCOc1nc(N2C[C@H]3CC[C@@H](C2)N3)c2cnc(-c3cc(O)cc4ccccc34)c(F)c2n1)c1ccc(S(=O)(=O)F)cc1` [Example 212, 4-((2-((4-((1R,5S)-3,8-diazabicyclo[3.2.1]octan-3-yl)-8-fluoro-7-(3-hydroxynaphthalen-1-yl)pyrido[^4,3-d]pyrimidin-2-yl)oxy)ethyl)carbamoyl)benzenesulfonyl fluoride bis(2,2,2-trifluoroacetate)], the IC50 rises from 0.062 nM to 1220 nM (20000-fold).

Compared with `Fc1c(-c2cccc3cccc(Cl)c23)ncc2c(N3CC4CCC(C3)N4)nc(OCC34CCCN3C[C@H](F)C4)nc12` (stereo partly drawn) [Example 226, 4-((1R,5S)-3,8-diazabicyclo[3.2.1]octan-3-yl)-7-(8-chloronaphthalen-1-yl)-8-fluoro-2-((2-fluorotetrahydro-1H-pyrrolizin-7a(5H)-yl)methoxy)pyrido[4,3-d]pyrimidine bis-hydrochloride], `C[C@H]1CN2CCC[C@@]2(COc2nc(N3CC4CCC(C3)N4)c3cnc(-c4cccc5cccc(Cl)c45)c(F)c3n2)C1` (stereo in doubt) [Example 227, 4-((1R,5S)-3,8-diazabicyclo[3.2.1]octan-3-yl)-7-(8-chloronaphthalen-1-yl)-8-fluoro-2-((2-methyltetrahydro-1H-pyrrolizin-7a(5H)-yl)methoxy)pyrido[4,3-d]pyrimidine bis-hydrochloride] is 4-fold lower in IC50: 25.9 nM for the first, 6.4 nM for the second.

Compared with `Cc1c(F)cccc1-c1ncc2c(N3C[C@H]4CC[C@@H](C3)N4)nc(OCC34CCCN3CCC4)nc2c1F` [Example 294, 4-((1R,5S)-3,8-diazabicyclo[3.2.1]octan-3-yl)-8-fluoro-7-(3-fluoro-2-methylphenyl)-2-((hexahydro-1H-pyrrolizin-7a-yl)methoxy)pyrido[4,3-d]pyrimidine], `CCNc1c(F)cccc1-c1ncc2c(N3C[C@H]4CC[C@@H](C3)N4)nc(OCC34CCCN3CCC4)nc2c1F` [Example 269, 2-(4-((1R,5S)-3,8-diazabicyclo[3.2.1]octan-3-yl)-8-fluoro-2-((hexahydro-1H-pyrrolizin-7a-yl)methoxy)pyrido[4,3-d]pyrimidin-7-yl)-N-ethyl-6-fluoroaniline] is 6.5-fold higher in IC50: 620 nM for the first, 4040 nM for the second.

Compared with `CSc1cccc2cccc(-c3ncc4c(N5C[C@H]6CC[C@@H](C5)N6)nc(OCC56CCCN5CCC6)nc4c3F)c12` [Example 199, 4-((1R,5S)-3,8-diazabicyclo[3.2.1]octan-3-yl)-8-fluoro-7-(8-(methylthio)naphthalen-1-yl)-2-((tetrahydro-1H-pyrrolizin-7a(5H)-yl)methoxy)pyrido[4,3-d]pyrimidine], `CSc1ccccc1-c1ncc2c(N3C[C@H]4CC[C@@H](C3)N4)nc(OCC34CCCN3CCC4)nc2c1F` [Example 329, 4-((1R,5S)-3,8-diazabicyclo[3.2.1]octan-3-yl)-8-fluoro-7-(2-(methylthio)phenyl)-2-((tetrahydro-1H-pyrrolizin-7a(5H)-yl)methoxy)pyrido[4,3-d]pyrimidine] is 100-fold higher in IC50: 2 nM for the first, 202 nM for the second. The first is the more potent here.

Going from `OCC#Cc1cccc2cccc(-c3ncc4c(N5C[C@H]6CC[C@@H](C5)N6)nc(OCC56CCCN5CCC6)nc4c3F)c12` [Example 193, 3-(8-(4-((1R,5S)-3,8-diazabicyclo[3.2.1]octan-3-yl)-8-fluoro-2-((tetrahydro-1H-pyrrolizin-7a(5H)-yl)methoxy)pyrido[4,3-d]pyrimidin-7-yl)naphthalen-1-yl)prop-2-yn-1-ol] to `C#Cc1c(F)ccc2cccc(-c3ncc4c(N5C[C@H]6CC[C@@H](C5)N6)nc(OCC56CCCN5CCC6)nc4c3F)c12` [Example 189, 4-((1R,5S)-3,8-diazabicyclo[3.2.1]octan-3-yl)-7-(8-ethynyl-7-fluoronaphthalen-1-yl)-8-fluoro-2-((tetrahydro-1H-pyrrolizin-7a(5H)-yl)methoxy)pyrido[4,3-d]pyrimidine], the IC50 falls from 12.5 nM to 0.5 nM (25-fold).

Going from `CC(C)c1c(Cl)cccc1-c1ncc2c(N3C[C@H]4CC[C@@H](C3)N4)nc(OCC34CCCN3CCC4)nc2c1F` [Example 298, 4-((1R,5S)-3,8-diazabicyclo[3.2.1]octan-3-yl)-7-(3-chloro-2-isopropylphenyl)-8-fluoro-2-((hexahydro-1H-pyrrolizin-7a-yl)methoxy)pyrido[4,3-d]pyrimidine] to `Fc1c(-c2cccc(Cl)c2Cl)ncc2c(N3C[C@H]4CC[C@@H](C3)N4)nc(OCC34CCCN3CCC4)nc12` [Example 277, 4-((1R,5S)-3,8-diazabicyclo[3.2.1]octan-3-yl)-7-(2,3-dichlorophenyl)-8-fluoro-2-((hexahydro-1H-pyrrolizin-7a-yl)methoxy)pyrido[4,3-d]pyrimidine], the IC50 rises from 8.3 nM to 35.2 nM (4.2-fold). The first is the more potent here.

Going from `Fc1c(-c2cccc3cccc(Cl)c23)ncc2c(N3C[C@H]4CC[C@@H](C3)N4)nc(OC[C@]34CCCN3[C@@H](Cn3cccn3)CC4)nc12` [Example 418, 2-(((3R,7aR)-3-((1H-pyrazol-1-yl)methyl)hexahydro-1H-pyrrolizin-7a-yl)methoxy)-4-((1R,5S)-3,8-diazabicyclo[3.2.1]octan-3-yl)-7-(8-chloronaphthalen-1-yl)-8-fluoropyrido[4,3-d]pyrimidine] to `COC(=O)NC[C@H]1CC[C@@]2(COc3nc(N4CC5CCC(C4)N5)c4cnc(-c5cccc6cccc(Cl)c56)c(F)c4n3)CCCN12` [Example 411, methyl ((7a-(((4-(3,8-diazabicyclo[3.2.1]octan-3-yl)-7-(8-chloronaphthalen-1-yl)-8-fluoropyrido[4,3-d]pyrimidin-2-yl)oxy)methyl)hexahydro-1H-pyrrolizin-3-yl)methyl)carbamate], the IC50 rises from 7.5 nM to 17 nM (2.3-fold). The first is the more potent here.

First: O=Cc1cc(CCOc2nc(N3C[C@H]4CC[C@@H](C3)N4)c3cnc(-c4cccc5cccc(Cl)c45)c(F)c3n2)ccc1O [Example 62, 5-(2-((4-((1R,5S)-3,8-diazabicyclo[3.2.1]octan-3-yl)-7-(8-chloronaphthalen-1-yl)-8-fluoropyrido[4,3-d]pyrimidin-2-yl)oxy)ethyl)-2-hydroxybenzaldehyde]
Second: Oc1cc(-c2ncc3c(N4C[C@H]5CC[C@@H](C4)N5)nc(OCC45CCCN4CCC5)nc3c2F)c2c(Cl)cccc2c1 [Example 36, 4-(4-((1R,5S)-3,8-diazabicyclo[3.2.1]octan-3-yl)-8-fluoro-2-((tetrahydro-1H-pyrrolizin-7a(5H)-yl)methoxy)pyrido[4,3-d]pyrimidin-7-yl)-5-chloronaphthalen-2-ol]
The IC50 of the first is 21000-fold higher: 8410 nM for the first, 0.4 nM for the second.

Compared with `CCc1c(F)ccc2cccc(-c3ncc4c(N5C[C@H]6CC[C@@H](C5)N6)nc(OCC56CCCN5CCC6)nc4c3F)c12` [Example 426, 4-((1R,5S)-3,8-diazabicyclo[3.2.1]octan-3-yl)-7-(8-ethyl-7-fluoronaphthalen-1-yl)-8-fluoro-2-((hexahydro-1H-pyrrolizin-7a-yl)methoxy)pyrido[4,3-d]pyrimidine], `CC(C)c1ccc(O)cc1-c1ncc2c(N3CC4CCC(C3)N4)nc(OC[C@@]34CCCN3C[C@H](F)C4)nc2c1F` (stereo in doubt) [Example 399, 3-(4-((1R,5S)-3,8-diazabicyclo[3.2.1]octan-3-yl)-8-fluoro-2-((2-fluorotetrahydro-1H-pyrrolizin-7a(5H)-yl)methoxy)pyrido[4,3-d]pyrimidin-7-yl)-4-isopropylphenol] is 3-fold higher in IC50: 0.9 nM for the first, 2.7 nM for the second. The first is the more potent here.
